Experimental data published in US11952610B2, “Digital microbiology” (priority 2016, dated 2024).

Columns and labels:
Format in all cases: cell-based
[1] = test system: Penicillium hirsutum ATCC 16025; assay: Inhibition of mold growth outside the droplet aqueous phase, antifungal in oil phase; details: 80 mg/L in the oil phase, YCG broth, 24 hours
[2] = test system: Erotium rubrum CECT 20807; assay: as above
Procedure: (§1) Usual foodborne mold strains were grown until the sporulation state (usually for 5 to 7 days) on the appropriate culture medium at 28° C. Spores were then scraped into 0.05% Tween 80 sterile solution. The collected suspensions were filtered on several layers of gauze compressed to eliminate most of the hyphae and mycelium fragments. When necessary, the suspensions were kept under stirring in the dark and at room temperature before the filtration step to ensure optimal spore release from the fungal structures. The spore concentration was determined in a hemocytometer chamber and/or by plating on agar Petri plates.
(§2) The suspensions were then centrifuged for 5 minutes at 10.000 rpm and the supernatants discarded. The pellets were resuspended with the appropriate volume of YGC broth containing 30% of glycerol and the aliquots were stored at −20° C. for up to 6 months.
(§3) Aliquots were thawed at room temperature and washed once in YGC broth to remove glycerol. The spores were then diluted to the concentration of 10^5 spores/mL in YGC broth containing 5% of Pluronic F68 surfactant.
(§4) Dicloran stock solution was prepared at 40 mg/mL in acetone. The stock solution was then diluted to produce working solutions according to table below.
(§5) A volume of 10 μL of the appropriate working solution was then added to 2 mL of Oil for Eva Green to reach the targeted final concentrations (0.5% v/v) (see the table below).
(§6) For droplet generation using the QX200™ Droplet generator, the ‘sample’ and ‘oil’ wells of a DG8 cartridge were respectively filled with […], of the prepared spore suspension (with or without CFDA) and 70 μL of the Oil for Eva Green (with or without Dicloran). After the generation process, the droplet emulsions (30-35 μL/well) were transferred to a 96-well Eppendorf plate and placed at 28° C. for 24 to 48 hours.

[3] = test system: usual foodborne mold strains; assay: as above; details: 40 to 100 mg/L in the oil for EvaGreen, 28° C., 24 to 48 hours
Procedure: as §1, §2, §3, §4, §5, §6

[4] = test system: Mucor racemosus CECT 20821; assay: as above; details: YCG broth, 48 hours
Procedure: as §1, §2, §3, §4, §5, §6

[5] = test system: Aspergillus restrictus CECT 20807; assay: as above; details: YCG broth
[6] = test system: Fusarium graminearum DSM 1096; details: 100 mg/L in the oil phase, YCG broth, 48 hours

Nc1c(Cl)cc([N+](=O)[O-])cc1Cl [dicloran, 2,6-dichloro-4-nitroaniline]
Mold growth outside the aqueous phase [1]: inhibition of mold growth outside the aqueous phase
Mold growth outside the aqueous phase ([2]; 60 mg/L in the oil phase, YCG broth, 24 hours): inhibition of mold growth outside the aqueous phase
Mold growth outside the aqueous phase ([2]; 80 mg/L in the oil phase, 5,6 carboxyfluorescein diacetate (25 mg/L) in the broth): inhibition of Erotium rubrum CECT 20807 growth outside the aqueous phase
Mold growth outside the aqueous phase ([2]; 80 mg/L in the oil phase, YCG broth, 48 hours): inhibition of mold growth outside the aqueous phase
Hyphae spreading and mold growth outside the droplet [3]: the hyphae spreading was inhibited and mold growth was confined within the droplet
Mold growth outside the aqueous phase ([4]; 40 mg/L in the oil phase): inhibition of mold growth outside the aqueous phase
Mold growth outside the aqueous phase ([4]; 60 mg/L in the oil phase): inhibition of mold growth outside the aqueous phase
Mold growth outside the aqueous phase ([5]; 80 mg/L in the oil phase, 24 hours): inhibition of mold growth outside the aqueous phase
Mold growth outside the aqueous phase ([5]; 100 mg/L in the oil phase, 48 hours): inhibition of mold growth outside the aqueous phase
Mold growth outside the aqueous phase [6]: inhibition of mold growth outside the aqueous phase
